Test results from PMC8156206, “Novel N,N′-Disubstituted Selenoureas as Potential Antioxidant and Cytotoxic Agents” (Antioxidants, 2021).
Read-outs that look alike come from different tables or passages of the source.

Experiments:
[1] = ABTS radical scavenging assay; details: 0.003 mg/mL, 60 min
Procedure: (§1) From all the methods available for the prediction of the antioxidant properties, DPPH^● and ABTS^●+ assays were chosen according to their simplicity, accessibility, and effectiveness for a fast prediction of radical scavenging activities in vitro. The radical scavenging capacity of the novel selenoureas was determined by DPPH^● and ABTS^●^+ assays. Measurements were recorded on a BioTeck PowerWave XS spectrophotometer (BioTeck Instruments, Winooski (VT), USA) and the data were collected using KCJunior software (BioTeck Instruments, Winooski (VT), USA).
As well as DPPH, ABTS radical scavenging assay is a colorimetric method. ABTS (2,2′-azino-bis(3-ethylbenzothiazoline-6-sulfonic acid) was dissolved in deionized water at 1 mg/mL and oxidized to ABTS^●+ with potassium persulfate (2.45 mM final concentration). This oxidation process is not instantaneous, and the reaction mixture was kept in the dark overnight at room temperature. After ABTS^●+ radical was generated, the ABTS^●+ solution was diluted with 50% ethanol until an absorbance of 0.70 ± 0.02 at 734 nm for measurements was achieved. Stock solution of 1 mg/mL in absolute ethanol was prepared for each selenourea, and different dilutions were prepared to reach the final concentration, when 20 µL of this solution were added to 180 µL of the diluted ABTS^●+. The absorbance at 734 nm was recorded using 50% ethanol as blank. Trolox and Asc were used as positive controls. All determinations were carried out in triplicate. Same time intervals as in the DPPH assay were also measured. The ability to scavenge ABTS^●+ was calculated using the following formula:(2) % ABTS radical scavenging=Acontrol − Asample/Acontrol × 100 where Acontrol refers to the absorbance of the negative control and Asample refers to the absorbance of the tested compounds. The results are expressed as percentage of ABTS radical scavenging ± SD.
In order to confirm the antioxidant activity of the selenoureas, we performed an additional ABTS (2,2′-azino-bis(3-ethylbenzothiazoline-6-sulfonic acid) radical scavenging assay. Following the results obtained in the DPPH assay, this experiment was performed at 0.03 and 0.003 mg/mL. Measurements were recorded after 0′, 6′ and 60′ of incubation with ABTS. For comparison purposes, Trolox and ascorbic acid were used as references. The remarkable results are summarized in Figure 3.

[2] = system: MCF-7 cells (breast adenocarcinoma); assay: MTT cell viability assay, MCF-7; assay type: cell-based, human; details: for IC50 / viability at 10 µM / viability at 50 µM: Homo sapiens; for IC50: read-out: IC50 MCF-7 (breast); for viability at 10 µM / viability at 50 µM: read-out: cell viability, percentage of live cells; for SI (selectivity index) breast: IC50 (184B5)/IC50 (MCF-7)
Procedure: (§2) Cell lines were purchased from the American Type Culture Collection (ATCC). MCF-7, HTB-54, BEAS-2B and 184B5 cell lines were grown in RPMI 1640 medium (Gibco) supplemented with 10% fetal bovine serum (FBS; Gibco), 100 units/mL penicillin, and […] streptomycin (Gibco). HT-29 and HCT-116 cell lines was cultured in McCoy’s 5A (Gibco), 10% FBS, 100 units/mL penicillin, and 100 μg/mL streptomycin. Cells were maintained at 37 °C and 5% CO2. Culture medium was replaced every three days.
(§3) A cell viability assay of each compound was carried out using an MTT assay. Each selenourea was dissolved in dimethyl sulfoxide (DMSO) at a concentration of 0.01 M. Serial dilutions were prepared with non-supplemented culture medium. Cytotoxic activity of each selenourea was determined at two different concentrations (10 and 50 µM) in MCF-7, HTB-54, and HT-29 cells. In addition, selected compounds were tested at seven different concentrations (0.1, 1, 5, 10, 25, 50, 100 µM) on MCF-7, HT-29, HCT-116, HTB-54, 184B5, and BEAS-2B cells. The number of passages before defrosting the cells was 3, and they were kept under culture up to a maximum of 15.
(§4) Briefly, 1 × 10^4 cells/well were grown in 96-well plates for 24 h. Then, these cells were incubated with either DMSO (negative control) at 5 µM or a different concentration of each tested selenourea for 48 h. A volume of 20 µL of MTT was added 150 min before the termination point to measure cellular viability. After this time, culture medium was removed. The resultant formazan crystals were dissolved in 50 µL of DMSO, and absorbance was measured at 570 nm. Results are expressed as IC50, the half maximal inhibitory concentration. This value was calculated using GraphPad Prism 7 software by nonlinear curve fitting. Furthermore, the selectivity index (SI) was calculated as the ratio of the IC50 values determined for the non-malignant and the tumoral cells (IC50 (184B5)/IC50 (MCF-7) or (IC50 (BEAS-2B)/IC50 (HTB-54). Data were obtained from at least three independent experiments performed in triplicates.
(§5) The cytotoxic effects of synthesized compounds were evaluated against three human cancer cell lines: breast adenocarcinoma (MCF-7), lung adenocarcinoma (HTB-54), and colon carcinoma (HT-29), using a 3-[4,5-dimethylthiazol-2-yl]-2,5-diphenyltetrazolium bromide (MTT) assay. Firstly, the compounds were screened at two doses (50 and 10 µM) and after 48 h of treatment. The results are summarized in Figure 4 and are presented as percentages of growth inhibition related to control.

[3] = system: HTB-54 cells (lung adenocarcinoma); assay: MTT cell viability assay, HTB-54; assay type: cell-based, human; details: for IC50 / viability at 10 µM / viability at 50 µM: Homo sapiens; for IC50: read-out: IC50 HTB-54 (lung); for viability at 10 µM / viability at 50 µM: read-out: cell viability, percentage of live cells
Procedure: as §2, §3, §4, §5

[4] = system: HT-29 cells (colon carcinoma); assay: MTT cell viability assay, HT-29; assay type: cell-based; details: Homo sapiens; for IC50: read-out: IC50 HT-29 (colon); for viability at 10 µM / viability at 50 µM: read-out: cell viability, percentage of live cells
Procedure: as §2, §3, §4, §5

HCT-116 cells (colon) = assay: MTT cell viability assay, HCT-116; assay type: cell-based; details: Homo sapiens, read-out: IC50 HCT-116 (colon)
Procedure: as §2, §3, §4

[5] = system: 184B5 cells (breast non-malignant derived cell line); assay: MTT cell viability assay, 184B5; assay type: cell-based; details: Homo sapiens, read-out: IC50 184B5 (breast, non-malignant)
Procedure: as §2, §3, §4

[6] = Stability of the selenoureas before screening; assay type: physicochemical
[7] = DPPH radical scavenging assay; details: for DPPH radical scavenging capacity compared with ascorbic acid: at lower concentrations; for DPPH radical scavenging kinetics: 0.03 mg/mL, time-point 0 min
Procedure: as §1
A DPPH assay was performed, as described by Svinyarov. Stock solutions of 1 mg/mL were initially prepared for each selenourea in methanol and this solution was used for the preparation of the different concentrations employed in the assay. Ascorbic acid (Asc) was used as positive control due to the literature reports that this derivative is a potent antioxidant and radical scavenger. A volume of 100 µL from a previously prepared stock solution (preserved in dark and daily prepared) of DPPH (100 µM) in methanol were added to 100 µL of the methanolic selenoureas solutions prepared previously, and the antioxidant activity these compounds was assessed by its ability to decolorize DPPH● radical (purple color in methanol) to DPPHH (colorless). Thus, radical scavenging activity was estimated by the decrease in the absorbance at 517 nm. Determinations were recorded at different time-points. All the measurements were carried out in triplicate. Results are expressed as the percentage of the radicals scavenged, calculated using the following formula:(1) % DPPH radical scavenging=Acontrol − Asample/Acontrol × 100 where Acontrol refers to the absorbance of the negative control and Asample refers to the absorbance of the tested compounds. Results are expressed as percentage of DPPH radical scavenging ± SD.
In order to determine the radical scavenging of these newly synthesized selenourea derivatives, the DPPH assay was firstly employed. Measurements were performed at four different concentrations ranging from 0.0003 to 0.03 mg/mL, and collected at time-points between 0 min and 120 min (Figures S81–S100). Results are presented as the percentage of inhibition for DPPH radical scavenging activity.

[8] = system: BEAS-2B cells (lung non-malignant derived cell line); assay: MTT cell viability assay, BEAS-2B; assay type: cell-based; details: Homo sapiens, 48 h, mean ± SD
Procedure: as §2, §3, §4

Compound | melting point | IC50 ([2]; MCF7, 48 h, MTT, mean ± SD) | viability at 10 µM ([2]; MCF7, MCF-7, 10 µM, 48 h, MTT) | viability at 50 µM ([2]; MCF7, MCF-7, 50 µM, 48 h, MTT) | IC50 ([3]; HTB-54, 48 h, MTT, mean ± SD) | viability at 10 µM ([3]; HTB-54, 10 µM, 48 h, MTT) | viability at 50 µM ([3]; HTB-54, 50 µM, 48 h, MTT) | IC50 ([4]; HT-29, 48 h, MTT, mean ± SD) | viability at 10 µM ([4]; HT-29, 10 µM, 48 h, MTT) | viability at 50 µM ([4]; HT-29, 50 µM, 48 h, MTT) | stability of the compound before screening [6] | other results
[Se]=C(Nc1ccccc1)NC12CC3CC(CC(C3)C1)C2 [Compound 6a, N´-adamantyl-N-(phenyl)selenourea] | 161 °C |  |  |  |  |  |  |  |  |  |  | ABTS radical scavenging activity compared with Trolox [1]: significant lower radical scavenging activity than Trolox; IC50 ([2]; MCF7, 48 h): 9.88 ± 1.46 µM; viability at 10 µM ([2]; MCF7, 48 h): 54.3%; viability at 50 µM ([2]; MCF7, 48 h): 18.2%; SI (selectivity index) breast [2]: 2.25; IC50 ([3]; HTB-54, 48 h): > 10 µM; viability at 10 µM ([3]; HTB-54, 48 h): 51.9%; viability at 50 µM ([3]; HTB-54, 48 h): 15.7%; IC50 ([4]; HT-29, 48 h): 5.03 ± 3.06 µM; viability at 10 µM ([4]; HT-29, 48 h): 43%; viability at 50 µM ([4]; HT-29, 48 h): 33.9%; IC50 (HCT-116 cells (colon); HCT-116, 48 h): 5.69 ± 0.71 µM; IC50 ([5]; 184B5, 48 h): 22.2 ± 4.07 µM
Clc1ccc(NC(=[Se])NCc2ccco2)cc1 [Compound 1d] | 128 °C | > 10 µM | 78.2% | 27.9% | > 10 µM | 52.2% | 27.3% | 8.07 ± 3.77 µM | 48.6% | 35% |  | IC50 (HCT-116 cells (colon); HCT-116, 48 h, MTT, mean ± SD): 7.8 ± 0.56 µM
CCCCNC(=[Se])Nc1ccc(OC)cc1 [Compound 4c] | 89 °C |  |  |  |  |  |  |  |  |  | decomposed before screening | 
CCCCCCNC(=[Se])Nc1ccc(C)cc1 [Compound 5b] | 88 °C |  |  |  |  |  |  |  |  |  | decomposed before screening | 
CCCCCCNC(=[Se])Nc1ccccc1 [Compound 5a] | 59 °C |  |  |  |  |  |  |  |  |  | decomposed before screening | 
COc1ccc(NC(=[Se])NCc2nccs2)cc1 [Compound 2c] | 150 °C |  | 60% | 33.1% |  | 58.5% | 30.3% |  | 88.9% | 53.1% |  | DPPH radical scavenging capacity compared with ascorbic acid [7]: greater radical scavenging capacity than ascorbic acid; ABTS radical scavenging activity [1]: above 90%
Clc1ccc(NC(=[Se])NCc2nccs2)cc1 [Compound 2d] | 165 °C | > 10 µM | 59.7% | 35% | 8.65 ± 0.29 µM | 45.8% | 37.2% | > 10 µM | 77.2% | 67.1% |  | DPPH radical scavenging capacity compared with ascorbic acid [7]: greater radical scavenging capacity than ascorbic acid; SI (selectivity index) lung ([3]; IC50 (BEAS-2B)/IC50 (HTB-54)): 0.60; IC50 [8]: 5.22 ± 0.07 µM
O=c1ccc2cc(NC(=[Se])Nc3ccccc3)ccc2o1 [Compound 3a] | 169 °C | > 10 µM | 53.5% | 29.8% | > 10 µM | 66% | 10.3% | 6.49 ± 1.58 µM | 47.5% | 30.2% |  | DPPH radical scavenging kinetics [7]: reaching the maximum activity at time-point 0′; IC50 (HCT-116 cells (colon); HCT-116, 48 h, MTT, mean ± SD): 5.86 ± 0.52 µM
[Se]=C(NCc1nccs1)Nc1ccccc1 [Compound 2a] | 149 °C | 9.16 ± 3.49 µM | 41% | 42.8% | > 10 µM | 51.1% | 45.7% | > 10 µM | 79.7% | 47.3% |  | DPPH radical scavenging kinetics [7]: reaching the maximum activity at time-point 0′; SI (selectivity index) breast [2]: 1.20; IC50 ([5]; 184B5, 48 h, MTT, mean ± SD): 11 ± 0.73 µM
CCCCNC(=[Se])Nc1ccccc1 [Compound 4a] | 69 °C |  |  |  |  |  |  |  |  |  | decomposed before screening | 
CCCCNC(=[Se])Nc1ccc(C)cc1 [Compound 4b] | 46 °C |  |  |  |  |  |  |  |  |  | decomposed before screening | 
